Data set [1] has as its system Rattus norvegicus. The experiment in a line: Antiinflammatory activity in rat assessed as inhibition of carrageenan-induced paw edema administered orally at dose equivalent to 70 mg/kg ibuprofen after 4 hrs. In kind it is functional. The following applies: route oral. A general note: Carrageenan injected into the paw causes an acute inflammation.
The test system of data set [2] is Stomach (Rattus norvegicus). The experiment in a line: Gastrointestinal toxicity in rat gastric mucosa assessed as ulcerogenic activity-related malonaldehyde level per 100 mg of tissue administered orally at dose equivalent to 210 mg/kg ibuprofen (RVb = 3.26 nmol). Conditions: in vivo, po.
The subject of data set [3] is Rattus norvegicus. The experiment in a line: Gastrointestinal toxicity in rat assessed as ulcerogenic index administered orally at dose equivalent to 210 mg/kg ibuprofen. On the set-up: dose 210 mg/kg, route oral. The data set is classed as organism-based. Conditions: in vivo, po.
The test system of another data set is Mus musculus. The experiment in a line: Analgesic activity in po dosed mouse assessed as decrease in tail flick tendency after 4 hrs by tail flick test. The data set is classed as functional. A general note: Thermal pain tests record how soon the animal reacts.
Data set [4] concerns Rattus norvegicus. Put plainly: Hepatotoxicity in po dosed rat assessed as effect on serum SGPT level (reference value: 32.46 +/- 0.76 U/mL). The data set is classed as toxicity, organism-based. Conditions: in vivo.
Data set [5] concerns Rattus norvegicus. The experiment in a line: Hepatotoxicity in po dosed rat assessed as effect on serum SGOT level (reference value: 143.71 +/- 1.1 U/mL). The data set is classed as toxicity, organism-based. Conditions: in vivo.
Data set [6] has as its system Rattus norvegicus. Put plainly: Hepatotoxicity in po dosed rat assessed as effect on serum alkaline phosphatase level (reference value: 12.17 +/- 0.16 U/mL). The data set is classed as toxicity, organism-based. Conditions: in vivo.
For data set [7], the system named is Liver. Put plainly: Hepatotoxicity in po dosed rat liver assessed as effect on hepatocyte morphological changes by histopathological analysis. In kind it is toxicity, organism-based. Conditions: hepatocytes.
The subject of data set [8] is Rattus norvegicus. Put plainly: Hepatotoxicity in po dosed rat assessed as effect on total albumin level (reference value: 1.63 +/- 0.02 g/dl). In kind it is toxicity, organism-based. The following applies: in vivo.
Data set [9] deals with Rattus norvegicus. Put plainly: Hepatotoxicity in po dosed rat assessed as effect on total serum protein level (reference value: 1.72+/- 0.02 g/dl). The following applies: in vivo. The data set is classed as toxicity, organism-based.
The test system of data set [10] is Rattus norvegicus. The experiment in a line: Gastrointestinal toxicity in rat assessed as ulcerogenic index at 210 mg/kg, po. The data set is classed as organism-based. On the set-up: dose 210 mg/kg, route oral. The following applies: in vivo.
In data set [11] the test system is Rattus norvegicus. The experiment in a line: Antiinflammatory activity in rat assessed as inhibition of carrageenan-induced paw edema at 70 mg/kg, po after 4 hrs. In kind it is functional.
In data set [12] the test system is Liver. The experiment in a line: Gastrointestinal toxicity in rat liver assessed as ulcerogenic activity-related malonaldehyde level per 100 mg of tissue at 210 mg/kg, po (RVb = 3.26 nmol). The data set is classed as organism-based. On the set-up: dose 210 mg/kg, route oral. Conditions: in vivo.

For orientation: inhibition in vivo means the share of the control response that was lost under treatment.

SMILES strings stand for the structures.

Take `c1ccc(-c2nn3c(-c4ccncc4)nnc3s2)cc1`: in the data set with Rattus norvegicus [1], the inhibition in vivo was 66.4%. Moreover, the Activity in data set [2] is on record as 5.78 nmol. Further, in the data set with Rattus norvegicus [3], the UI came to 0.666. The “inhibition (INH)” value with Mus musculus worked out at 56.06%.
In the same order, the values of `Clc1ccccc1-c1nn2c(-c3ccncc3)nnc2s1` are 45.4%, 8.8 nmol, 1.417 and 37.27%.
The like results for `Clc1ccc(-c2nn3c(-c4ccncc4)nnc3s2)c(Cl)c1` were, in that order, 69.3%, 6.71 nmol, 0.75 and 61.81%.
The like results for `Cc1ccccc1-c1nn2c(-c3ccncc3)nnc2s1` were, in that order, 79.8%, 4.16 nmol, 0.471 and 62.54%.
`CC(=O)Oc1ccccc1-c1nn2c(-c3ccncc3)nnc2s1`: the inhibition in vivo in the data set with Rattus norvegicus [1] came to 39.8%. In addition, the Activity in data set [2] is reported as 8.82 nmol. Besides, the UI in the data set with Rattus norvegicus [3] turned out to be 2.25. For the same compound, in the data set on Mus musculus, the “inhibition (INH)” value came out at 25%.
In the same order, the values of `c1ccc(Oc2nn3c(-c4ccncc4)nnc3s2)cc1` are 63.5%, 7.32 nmol, 1.5 and 52.27%.
Turning to `O=[N+]([O-])c1ccc(-c2nn3c(-c4ccncc4)nnc3s2)cc1`, the inhibition in vivo in the data set on Rattus norvegicus [1] is 86.3%. Also, the Activity in data set [2] is 3.47 nmol; in the data set on Rattus norvegicus [4], 29.34 U/ml; with Rattus norvegicus [5], 138.32 U/ml; in the data set on Rattus norvegicus [6], 12.76 U/ml; in the data set with Liver [7], “Non-toxic”; in the data set with Rattus norvegicus [8], 1.77 g/dL. Moreover, the Activity in the data set on Rattus norvegicus [9] amounted to 1.78 g/dL. Also, in the data set on Rattus norvegicus [3], the UI turned out to be 0.324. Further, in the data set with Mus musculus, the “inhibition (INH)” value is given as 74.32%.
Turning to `Clc1ccccc1-c1nnc(-c2ccncc2)o1`, the inhibition in vivo with Rattus norvegicus [1] was 37.7%. For the same compound, the Activity in data set [2] is recorded as 8.11 nmol. Further, the UI with Rattus norvegicus [3] was determined as 2. The “inhibition (INH)” value with Mus musculus worked out at 29.54%.
With `Clc1ccc(-c2nnc(-c3ccncc3)o2)c(Cl)c1`, the inhibition in vivo with Rattus norvegicus [1] came out at 84%. Further, the Activity in data set [2] is 3.29 nmol; with Rattus norvegicus [4], 28.67 U/ml; with Rattus norvegicus [5] it was 136.24 U/ml; in the data set on Rattus norvegicus [6] it was 13.79 U/ml; in the data set on Liver [7], “Non-toxic”; in the data set on Rattus norvegicus [8], 1.72 g/dL. The Activity with Rattus norvegicus [9] was 1.76 g/dL. Further, the UI with Rattus norvegicus [3] is reported as 0.386. Also, the “inhibition (INH)” value in the data set with Mus musculus was 70.37%.
For `Cc1ccccc1-c1nnc(-c2ccncc2)o1`, the inhibition in vivo in the data set with Rattus norvegicus [1] amounted to 43.4%. Besides, in [2], the Activity stood at 7.33 nmol. Besides, the UI with Rattus norvegicus [3] is 2.266. Besides, the “inhibition (INH)” value in the data set with Mus musculus came out at 31.81%.
In the same order, the values of `CC(=O)Oc1ccccc1-c1nnc(-c2ccncc2)o1` are 63.4%, 5.19 nmol, 0.831 and 57.57%.
The like results for `c1ccc(Oc2nnc(-c3ccncc3)o2)cc1` were, in that order, 71.2%, 3.33 nmol, 0.731 and 62.14%.
The like results for `O=[N+]([O-])c1ccc(-c2nnc(-c3ccncc3)o2)cc1` were, in that order, 54%, 6.85 nmol, 1.762 and 44.05%.
With `c1ccc(-c2nnc(-c3ccncc3)o2)cc1`, the inhibition in vivo in the data set with Rattus norvegicus [1] was 82.6%. For the same compound, in the data set on Rattus norvegicus [3], the UI worked out at 1.667. For the same compound, the “inhibition (INH)” value in the data set on Mus musculus is 68.21%.
Regarding `Sc1nnc(-c2ccncc2)o1`, in the data set with Rattus norvegicus [1], the inhibition in vivo was found to be 62.9%. For the same compound, the Activity in [2] was 5.78 nmol. Moreover, the UI in the data set on Rattus norvegicus [3] was 1.327. Further, the “inhibition (INH)” value in the data set with Mus musculus is given as 54.28%.
Regarding `CC(C)Cc1ccc(C(C)C(=O)O)cc1` (stereo not drawn) [IBUPROFEN], the UI in the data set on Rattus norvegicus [10] is 2.315. For the same compound, the Activity with Rattus norvegicus [4] was 34.26 U/ml; in the data set on Rattus norvegicus [5], 140.14 U/ml; with Rattus norvegicus [6], 11.67 U/ml; with Rattus norvegicus [8], 1.71 g/dL; with Rattus norvegicus [9], 1.74 g/dL; in the data set with Liver [12], 7.51 nmol. In the data set on Mus musculus, the “inhibition (INH)” value is listed as 73.52%. In the data set with Rattus norvegicus [11], the inhibition in vivo at 70 mg/kg came out at 82.7%.
With `NNC(=O)c1ccncc1` [ISONIAZID], in the data set with Rattus norvegicus [1], the inhibition in vivo was determined as 51.6%. Also, the Activity with Rattus norvegicus [4] amounted to 40.21 U/ml; in the data set with Rattus norvegicus [5], 151.25 U/ml; with Rattus norvegicus [6], 8.31 U/ml; in the data set with Rattus norvegicus [8], 1.48 g/dL; in the data set with Rattus norvegicus [9] it was 1.55 g/dL. The UI in the data set on Rattus norvegicus [3] is recorded as 3.75. For the same compound, the “inhibition (INH)” value in the data set with Mus musculus was 45.9%.

The values are drawn from ChEMBL document CHEMBL1208787 (Bioorg Med Chem Lett, 2010).
